Structures can show the parent of a compound that is named as a salt.
Assays:
L6-myotubes [1] = experiment: Measurement of intracellular cAMP levels in differentiated L6 cells (alpha screen cAMP kit), compared to isoproterenol; format: cell-based; details: Rattus norvegicus, L6, 0.25 h, agonist 1×10^−5 M, 15 min, read-out: Biological example 2: intracellular cAMP levels, activity compared to that of isoproterenol
Protocol: (§1) L6-myoblasts were grown in Dulbecco's Modified Eagle's Medium (DMEM) containing 1 g/L glucose supplemented with 10% fetal bovine serum, 2 mM L-Glutamine, 50 U/mL penicillin, 50 μg/mL streptomycin and 10 mM HEPES. Cells were plated at 1×10^5 cells per mL in 24-well plates. After reaching 90% confluence the cells were grown in medium containing 2% FBS for 7 days where upon cells differentiated into myotubes.
Differentiated cells were serum-starved overnight and stimulated with an agonist, final concentration 1×10^−5 M, for 15 min in stimulation buffer (HBSS supplemented with 1% BSA, 5 mM HEPES and 1 mM IBMX, pH 7.4). The medium was aspirated and 100 μL of 95% EtOH was added to each well of the 24-well plate and cells were kept at −20° C. overnight. The EtOH was allowed to evaporate and 500 μL of lysis buffer (1% BSA, 5 mM HEPES and 0.3% Tween-20, pH 7.4) was added to each well. The plate was kept at −80° C. for 30 min and then at −20° C. until the day of detection when the samples were thawed. Intracellular cAMP levels were detected using an alpha screen cAMP kit (6760635D from Perkin Elmer). The activity for each compound is compared to that of isoproterenol.

L6-myotubes [2] = experiment: Glucose uptake in differentiated L6-myotubes (3H-2-deoxyglucose), compared to isoproterenol; format: cell-based; details: agonist 1×10^−5 M, 50 nM 3H-2-deoxyglucose; for Emax at 10 µM: read-out: Biological example 1: glucose uptake, activity compared to that of isoproterenol
Protocol: as §1
Differentiated L6-myotubes were serum-starved overnight in medium containing 0.5% fatty-acid free BSA and stimulated with an agonist, with a final concentration of 1×10^−5 M. After 1 h 40 min the cells were washed with warm glucose free medium or PBS twice and another portion of agonist was added to the glucose free medium. After 20 min the cells were exposed to 50 nM ^3H-2-deoxyglucose for 10 min before washed with ice cold glucose free medium or PBS three times and lysed with 0.2 M NaOH, 400 μL/well, for 1 h at 60° C. The cell lysate was mixed with 4 mL scintillation buffer (Emulsifier Safe, Perkin Elmer) and the radioactivity was detected in a β-counter (Tri-Carb 4810TR, Perkin Elmer). The activity for each compound is compared to that of isoproterenol.

Row | Structure (SMILES) | Emax at 10 µM (L6-myotubes [1]) [%] | Biological example 1: glucose uptake, activity compared to that of isoproterenol (L6-myotubes [2]) | Emax at 10 µM (L6-myotubes [2]) [%]
1 | CO[C@H]1CC[C@@H](CCC(C)(C)NC[C@H](O)c2cncc(F)c2)CC1 [Example 24, (R)-1-(5-Fluoropyridin-3-yl)-2-((4-((1s,4R)-4-methoxycyclohexyl)-2-methylbutan-2-yl)amino)ethan-1-ol dihydrochloride] | < 25 | + + + | 
2 | O[C@@H](CNC[C@H]1CC[C@@H](OCc2ccccc2)CC1)c1cccc(F)c1 [Example 25, (R)-2-((((1s,4S)-4-(Benzyloxy)cyclohexyl)methyl)amino)-1-(3-fluoro-phenyl)ethan-1-ol] | < 25 |  | 25 to 50
3 | O[C@@H](CNC[C@H]1CC[C@@H](O)CC1)c1cccc(F)c1 [Example 26, (1S,4s)-4-((((R)-2-(3-Fluorophenyl)-2-hydroxyethyl)amino)methyl)-cyclohexan-1-ol] | < 25 |  | 25 to 50
4 | O[C@@H](CNC[C@H]1CC[C@@H](OCc2ccccc2)CC1)c1cncc(F)c1 [Example 27, (R)-2-((((1s,4S)-4-(Benzyloxy)cyclohexyl)methyl)amino)-1-(5-fluoropyridin-3-yl)ethan-1-ol] | < 25 | + + + | 
5 | O[C@@H](CNC[C@H]1CC[C@@H](O)CC1)c1cncc(F)c1 [Example 28, (1S,4s)-4-((((R)-2-(5-Fluoropyridin-3-yl)-2-hydroxyethyl)amino)-methyl)cyclohexan-1-ol] | < 25 |  | 25 to 50
6 | O[C@@H](CNC[C@H]1CC[C@H](OCc2ccccc2)CC1)c1cccc(F)c1 [Example 29, (R)-2-((((1r,4R)-4-(Benzyloxy)cyclohexyl)methyl)amino)-1-(3-fluoro-phenyl)ethan-1-ol] | < 25 |  | 25 to 50
7 | O[C@@H](CNC[C@H]1CC[C@H](O)CC1)c1cccc(F)c1 [Example 30, (1R,4r)-4-((((R)-2-(3-Fluorophenyl)-2-hydroxyethyl)amino)methyl)-cyclohexan-1-ol] | < 25 |  | 25 to 50
8 | O[C@@H](CNC[C@H]1CC[C@H](OCc2ccccc2)CC1)c1cncc(F)c1 [Example 31, (R)-2-((((1r,4R)-4-(Benzyloxy)cyclohexyl)methyl)amino)-1-(5-fluoropyridin-3-yl)ethan-1-ol] | < 25 |  | 25 to 50
9 | O[C@@H](CNC[C@H]1CC[C@H](O)CC1)c1cncc(F)c1 [Example 32, (1R,4r)-4-((((R)-2-(5-Fluoropyridin-3-yl)-2-hydroxyethyl)amino)-methyl)cyclohexan-1-ol] | < 25 |  | < 25
10 | CC(C)(NC[C@H](O)c1cccc(F)c1)[C@H]1CC[C@@H](OCc2ccccc2)CC1 [Example 33, (R)-2-((2-((1s,4S)-4-(Benzyloxy)cyclohexyl)propan-2-yl)amino)-1-(3-fluorophenyl)ethan-1-ol] | < 25 | + + | 
11 | CC(C)(NC[C@H](O)c1cccc(F)c1)[C@H]1CC[C@@H](O)CC1 [Example 34, (1S,4s)-4-(2-(((R)-2-(3-Fluorophenyl)-2-hydroxyethyl)amino)propan-2-yl)cyclohexan-1-ol] | < 25 | + + | 
12 | CC(C)(NC[C@H](O)c1cncc(F)c1)[C@H]1CC[C@@H](OCc2ccccc2)CC1 [Example 35, (R)-2-((2-((1s,4S)-4-(Benzyloxy)cyclohexyl)propan-2-yl)amino)-1-(5-fluoropyridin-3-yl)ethan-1-ol] | < 25 | + + | 
13 | CC(C)(NC[C@H](O)c1cncc(F)c1)[C@H]1CC[C@@H](O)CC1 [Example 36, (1S,4s)-4-(2-(((R)-2-(5-Fluoropyridin-3-yl)-2-hydroxyethyl)amino)propan-2-yl)cyclohexan-1-ol] | < 25 |  | 25 to 50
14 | CC(C)(NC[C@H](O)c1cccc(F)c1)[C@H]1CC[C@H](OCc2ccccc2)CC1 [Example 37, (R)-2-((2-((1r,4R)-4-(Benzyloxy)cyclohexyl)propan-2-yl)amino)-1-(3-fluoro-phenyl)ethan-1-ol] | < 25 | + + | 
15 | CC(C)(NC[C@H](O)c1cccc(F)c1)[C@H]1CC[C@H](O)CC1 [Example 38, (1R,4r)-4-(2-(((R)-2-(3-Fluorophenyl)-2-hydroxyethyl)amino)propan-2-yl)cyclohexan-1-ol] | < 25 | + + | 
16 | CC(C)(NC[C@H](O)c1cncc(F)c1)[C@H]1CC[C@H](OCc2ccccc2)CC1 [Example 39, (R)-2-((2-((1r,4R)-4-(Benzyloxy)cyclohexyl)propan-2-yl)amino)-1-(5-fluoropyridin-3-yl)ethan-1-ol] | < 25 | + + | 
17 | CC(C)(NC[C@H](O)c1cncc(F)c1)[C@H]1CC[C@H](O)CC1 [Example 40, (1R,4r)-4-(2-(((R)-2-(5-Fluoropyridin-3-yl)-2-hydroxyethyl)amino)propan-2-yl)cyclohexan-1-ol] | < 25 | + + | 
18 | O[C@@H](CNCC[C@H]1CC[C@@H](OCc2ccccc2)CC1)c1cccc(F)c1 [Example 41, (R)-2-((2-((1s,4S)-4-(Benzyloxy)cyclohexyl)ethyl)amino)-1-(3-fluoro-phenyl)ethan-1-ol] | < 25 | + + | 
19 | O[C@@H](CNCC[C@H]1CC[C@@H](O)CC1)c1cccc(F)c1 [Example 42, (1S,4s)-4-(2-(((R)-2-(3-Fluorophenyl)-2-hydroxyethyl)amino)ethyl)-cyclohexan-1-ol] | < 25 | + + | 
20 | O[C@@H](CNCC[C@H]1CC[C@@H](O)CC1)c1cncc(F)c1 [Example 44, (1S,4s)-4-(2-(((R)-2-(5-Fluoropyridin-3-yl)-2-hydroxyethyl)amino)-ethyl)cyclohexan-1-ol] | < 25 |  | 25 to 50
21 | O[C@@H](CNCC[C@H]1CC[C@H](OCc2ccccc2)CC1)c1cccc(F)c1 [Example 45, (R)-2-((2-((1r,4R)-4-(Benzyloxy)cyclohexyl)ethyl)amino)-1-(3-fluoro-phenyl)ethan-1-ol] | < 25 |  | 25 to 50
22 | O[C@@H](CNCC[C@H]1CC[C@H](O)CC1)c1cccc(F)c1 [Example 46, (1R,4r)-4-(2-(((R)-2-(3-Fluorophenyl)-2-hydroxyethyl)amino)ethyl)-cyclohexan-1-ol] | < 25 |  | 25 to 50
23 | O[C@@H](CNCC[C@H]1CC[C@H](OCc2ccccc2)CC1)c1cncc(F)c1 [Example 47, (R)-2-((2-((1r,4R)-4-(Benzyloxy)cyclohexyl)ethyl)amino)-1-(5-fluoropyridin-3-yl)ethan-1-ol] | < 25 |  | < 25
24 | O[C@@H](CNCC[C@H]1CC[C@H](O)CC1)c1cncc(F)c1 [Example 48, (1R,4r)-4-(2-(((R)-2-(5-Fluoropyridin-3-yl)-2-hydroxyethyl)amino)-ethyl)cyclohexan-1-ol] | < 25 |  | 25 to 50
25 | CC(C)(C[C@H]1CC[C@@H](O)CC1)NC[C@H](O)c1cccc(F)c1.Cl [Example 49, (1S,4s)-4-(2-(((R)-2-(3-Fluorophenyl)-2-hydroxyethyl)amino)-2-methylpropyl)cyclohexan-1-ol hydrochloride] | < 25 | + + | 
26 | CC(C)(C[C@H]1CC[C@@H](O)CC1)NC[C@H](O)c1cncc(F)c1.Cl [Example 50, (1S,4s)-4-(2-(((R)-2-(5-Fluoropyridin-3-yl)-2-hydroxyethyl)amino)-2-methylpropyl)cyclohexan-1-ol hydrochloride] | < 25 | + + + | 
27 | CC(C)(C[C@H]1CC[C@H](O)CC1)NC[C@H](O)c1cccc(F)c1.Cl [Example 51, (1R,4r)-4-(2-(((R)-2-(3-Fluorophenyl)-2-hydroxyethyl)amino)-2-methylpropyl)cyclohexan-1-ol hydrochloride] | < 25 | + + + | 
28 | CC(C)(C[C@H]1CC[C@H](O)CC1)NC[C@H](O)c1cncc(F)c1 [Example 52, (1R,4r)-4-(2-(((R)-2-(5-Fluoropyridin-3-yl)-2-hydroxyethyl)amino)-2-methylpropyl)cyclohexan-1-ol] | < 25 | + + + | 

From US20240390298A1, “CYCLOHEXYL BETA-HYDROXY ALKYL AMINES AND MEDICAL USES THEREOF” (ATROGI AB, priority 2021, published 2024)
